Measurements: patent US9809587B2, “Pesticidally active heterocyclic derivatives with sulphur containing substituents” (Syngenta Participations AG, priority 2014, dated 2017)

Tests used:
Format in all cases: in vivo
[1] = system: Frankliniella occidentalis (Western Flower Thrips); assay: Frankliniella occidentalis (western flower thrips), sprayed sunflower leaf discs; conditions: foliar, 168 h, application rate of 200 ppm, mixed ages on sunflower leaf discs, 7 days after infestation
Protocol: Example B11: Frankliniella occidentalis (Western Flower Thrips)
(§1) Sunflower leaf discs were placed on agar in 24-well microtiter plates and sprayed with aqueous test solutions prepared from 10′000 DMSO stock solutions. After drying the leaf discs were infested with a Frankliniella population of mixed ages. The samples were assessed for mortality 7 days after infestation.

[2] = system: Euschistus heros (Neotropical Brown Stink Bug); assay: Euschistus heros (neotropical brown stink bug), sprayed soybean leaf; conditions: 120 h, application rate of 200 ppm, N-2 nymphs on soybean leaf, 5 days after infestation
Protocol: Example B3: Euschistus heros (Neotropical Brown Stink Bug)
Soybean leaf on agar in 24-well microtiter plates were sprayed with aqueous test solutions prepared from 10′000 ppm DMSO stock solutions. After drying the leaf were infested with N-2 nymphs. The samples were assessed for mortality in comparison to untreated samples 5 days after infestation.

[3] = system: Bemisia tabaci (Cotton White Fly); assay: Bemisia tabaci (cotton white fly), sprayed cotton leaf discs; conditions: foliar, 144 h, application rate of 200 ppm, adult white flies on cotton leaf discs, 6 days after incubation
Protocol: Example B1: Bemisia tabaci (Cotton White Fly)
Cotton leaf discs were placed on agar in 24-well microtiter plates and sprayed with aqueous test solutions prepared from 10′000 ppm DMSO stock solutions. After drying the leaf discs were infested with adult white flies. The samples were checked for mortality 6 days after incubation.

[4] = system: Plutella xylostella (Diamond Back Moth); assay: Plutella xylostella (diamond back moth), treated artificial diet; conditions: 120 h, application rate of 200 ppm, L2 larvae on artificial diet, 5 days after infestation, read-out: effect in at least one of the two categories (mortality or growth inhibition)
In short: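 Artificial diet treated with aqueous dilutions of DMSO stocks (10′000 ppm stock), dried, then infested with 10-15 L2 larvae per well. Mortality and growth inhibition assessed versus untreated controls 5 days after infestation.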

[5] = system: Spodoptera littoralis (Egyqptian Cotton Leaf Worm); assay: Spodoptera littoralis (Egyptian cotton leaf worm), sprayed cotton leaf discs; conditions: foliar, 72 h, application rate of 200 ppm, L1 larvae on cotton leaf discs, 3 days after infestation
In short: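 Cotton leaf discs on agar were sprayed with aqueous dilutions made from 10′000 ppm DMSO stocks, then infested after drying with five L1 larvae. Mortality, anti-feedant effect and growth inhibition were scored against untreated discs 3 days after infestation. Control means at least one of these exceeds the untreated sample.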

[6] = system: Thrips tabaci (Onion Thrips); assay: Thrips tabaci (onion thrips), sprayed sunflower leaf discs; conditions: foliar, 144 h, application rate of 200 ppm, mixed ages on sunflower leaf discs, 6 days after infestation
Protocol: Example B10: Thrips tabaci (Onion Thrips)
as §1, with “10′000 ppm” for “10′000”, “thrips” for “Frankliniella”, “6” for “7”

[7] = system: Myzus persicae (Green Peach Aphid); assay: Myzus persicae (green peach aphid), roots of pea seedlings in test solution; conditions: 144 h, test rate of 24 ppm, roots of infested pea seedlings in test solution, 6 days
Protocol: Example B5: Myzus persicae (Green Peach Aphid)
Roots of pea seedlings infested with an aphid population of mixed ages were placed directly in the aqueous test solutions prepared from 10′000 DMSO stock solutions. The samples were assessed for mortality 6 days after placing seedlings in test solutions.

[8] = system: Myzus persicae (Green Peach Aphid); assay: Myzus persicae (green peach aphid), sprayed sunflower leaf discs; conditions: foliar, 144 h, application rate of 200 ppm, mixed ages on sunflower leaf discs, 6 days after infestation
Protocol: Example B4: Myzus persicae (Green Peach Aphid)
Sunflower leaf discs were placed on agar in a 24-well microtiter plate and sprayed with aqueous test solutions prepared from 10′000 ppm DMSO stock solutions. After drying, the leaf discs were infested with an aphid population of mixed ages. The samples were assessed for mortality 6 days after infestation.

[9] = system: Aedes aegypti (Yellow Fever Mosquito); assay: Activity against Aedes aegypti (yellow fever mosquito), dried deposits in tissue culture plates; conditions: application rate of 200 ppm in ethanol, adult females, after 48 h
Protocol: Example B12: Activity Against Aedes aegypti (Yellow Fever Mosquito)
Test solutions, at an application rate of 200 ppm in ethanol, were applied to 12-well tissue culture plates. Once the deposits were dry, five, two to five days old adult female Aedes aegypti were added to each well, and sustained with a 10% sucrose solution in a cotton wool plug. Assessment of knockdown was made one hour after introduction, and mortality was assessed at 24 and 48 hours after introduction.
The following compounds gave at least 80% control of Aedes aegypti after 48 h: […]

[10] = system: Diabrotica balteata (Corn Root Worm); assay: Diabrotica balteata (corn root worm), sprayed maize sprouts; conditions: 96 h, application rate of 200 ppm, L2 larvae on maize sprouts, 4 days after infestation
Protocol: Example B2: Diabrotica balteata (Corn Root Worm)
Maize sprouts, placed on an agar layer in 24-well microtiter plates were treated with aqueous test solutions prepared from 10′000 ppm DMSO stock solutions by spraying. After drying, the plates were infested with L2 larvae (6 to 10 per well). The samples were assessed for mortality and growth inhibition in comparison to untreated samples 4 days after infestation.

[11] = system: Spodoptera littoralis (Egyqptian Cotton Leaf Worm); assay: Spodoptera littoralis (Egyptian cotton leaf worm), compound in agar taken up by lettuce roots; conditions: 144 h, test rate of 12.5 ppm, uptake by lettuce roots from agar, 6 days after infestation, read-out: effect in at least one of the three categories (mortality, anti-feedancy, or growth inhibition)
In short: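 Compound mixed into agar from a 10′000 ppm DMSO stock and taken up over 7 days by lettuce roots; cut leaves then infested with Spodoptera eggs. Mortality, anti-feedant effect and growth inhibition scored against untreated samples 6 days after infestation.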

[12] = system: Tetranychus urticae (Two-Spotted Spider Mite); assay: Tetranychus urticae (two-spotted spider mite), sprayed bean leaf discs; conditions: foliar, 192 h, application rate of 200 ppm, mixed population (mobile stages) on bean leaf discs, 8 days after infestation
Protocol: Example B9: Tetranychus urticae (Two-Spotted Spider Mite)
Bean leaf discs on agar in 24-well microtiter plates were sprayed with aqueous test solutions prepared from 10′000 ppm DMSO stock solutions. After drying the leaf discs were infested with a mite population of mixed ages. The samples were assessed for mortality on mixed population (mobile stages) 8 days after infestation.

CCS(=O)(=O)c1cc(-c2cncnc2)cnc1-c1nc2cc(C(F)(F)F)ncc2n1C [Compound P8]
≥ 80%: mortality at 200 ppm [1] | mortality at 200 ppm [2] | mortality at 200 ppm [3] | percent effect (mortality or growth inhibition) at 200 ppm [4] | percent control (mortality, anti-feedant effect or growth inhibition) at 200 ppm [5] | mortality at 200 ppm [6] | mortality at 24 ppm [7] | mortality at 200 ppm [8]

CCS(=O)(=O)c1cc(-c2ncc(Cl)cn2)cnc1-c1nc2cc(C(F)(F)F)ncc2n1C [Compound P11]
≥ 80%: mortality at 200 ppm [1] | mortality at 200 ppm [2] | pest or weed control at 200 ppm [9] | mortality at 200 ppm [3] | percent effect (mortality or growth inhibition) at 200 ppm [4] | percent control (mortality, anti-feedant effect or growth inhibition) at 200 ppm [5] | mortality at 200 ppm [6] | mortality at 200 ppm [10] | percent control (mortality, anti-feedancy or growth inhibition) at 12.5 ppm [11] | mortality at 200 ppm [8]

CCS(=O)(=O)c1cc(-n2cc(Cl)cn2)cnc1-c1nc2cc(C(F)(F)F)ncc2n1C [Compound P16, 2-[5-(4-chloropyrazol-1-yl)-3-ethylsulfonyl-2-pyridyl]-3-methyl-6-(trifluoromethyl)imidazo[4,5-c]pyridine]
≥ 80%: mortality at 200 ppm [1] | mortality at 200 ppm [2] | pest or weed control at 200 ppm [9] | mortality at 200 ppm [3] | percent effect (mortality or growth inhibition) at 200 ppm [4] | percent control (mortality, anti-feedant effect or growth inhibition) at 200 ppm [5] | mortality at 200 ppm [6] | mortality at 200 ppm [10] | percent control (mortality, anti-feedancy or growth inhibition) at 12.5 ppm [11] | mortality at 200 ppm [8]

CCS(=O)(=O)c1cc(-n2cc(Br)cn2)cnc1-c1nc2cc(C(F)(F)F)ncc2n1C [Compound P17]
≥ 80%: mortality at 200 ppm [1] | pest or weed control at 200 ppm [9] | mortality at 200 ppm [3] | percent effect (mortality or growth inhibition) at 200 ppm [4] | percent control (mortality, anti-feedant effect or growth inhibition) at 200 ppm [5] | mortality at 200 ppm [6] | mortality at 200 ppm [10]

CCS(=O)(=O)c1cc(-c2ccc(Cl)cn2)cnc1-c1nc2cc(C(F)(F)F)ncc2n1C [Compound P20]
≥ 80%: mortality at 200 ppm [1] | mortality at 200 ppm [2] | pest or weed control at 200 ppm [9] | mortality at 200 ppm [3] | percent effect (mortality or growth inhibition) at 200 ppm [4] | percent control (mortality, anti-feedant effect or growth inhibition) at 200 ppm [5] | mortality at 200 ppm [6] | mortality at 200 ppm [10] | percent control (mortality, anti-feedancy or growth inhibition) at 12.5 ppm [11] | mortality at 200 ppm [8]

CCS(=O)(=O)c1cc(-c2cccc(C#N)n2)cnc1-c1nc2cc(C(F)(F)F)ncc2n1C [Compound P64]
≥ 80%: mortality at 200 ppm [12] | mortality at 200 ppm [2] | mortality at 200 ppm [3] | percent effect (mortality or growth inhibition) at 200 ppm [4] | percent control (mortality, anti-feedant effect or growth inhibition) at 200 ppm [5] | mortality at 200 ppm [10] | percent control (mortality, anti-feedancy or growth inhibition) at 12.5 ppm [11] | mortality at 200 ppm [8]

CCS(=O)(=O)c1cc(-c2ccoc2)cnc1-c1nc2cc(C(F)(F)F)ncc2n1C [Compound P71]
≥ 80%: mortality at 200 ppm [12] | mortality at 200 ppm [2] | percent effect (mortality or growth inhibition) at 200 ppm [4] | mortality at 200 ppm [10] | percent control (mortality, anti-feedancy or growth inhibition) at 12.5 ppm [11] | mortality at 200 ppm [8]

CCS(=O)(=O)c1cc(-n2cc(C(F)(F)F)cn2)cnc1-c1nc2cc(C(F)(F)F)ncc2n1C [Compound P85]
≥ 80%: mortality at 200 ppm [1] | mortality at 200 ppm [2] | pest or weed control at 200 ppm [9] | mortality at 200 ppm [3] | percent effect (mortality or growth inhibition) at 200 ppm [4] | percent control (mortality, anti-feedant effect or growth inhibition) at 200 ppm [5] | mortality at 200 ppm [6] | mortality at 200 ppm [10] | percent control (mortality, anti-feedancy or growth inhibition) at 12.5 ppm [11] | mortality at 200 ppm [8]

CCS(=O)(=O)c1cc(-c2ccc(C#N)cn2)cnc1-c1nc2cc(C(F)(F)F)ncc2n1C [Compound P91]
≥ 80%: mortality at 200 ppm [1] | mortality at 200 ppm [2] | mortality at 200 ppm [3] | percent effect (mortality or growth inhibition) at 200 ppm [4] | percent control (mortality, anti-feedant effect or growth inhibition) at 200 ppm [5] | mortality at 200 ppm [6] | mortality at 200 ppm [10] | percent control (mortality, anti-feedancy or growth inhibition) at 12.5 ppm [11] | mortality at 200 ppm [8]

CCS(=O)(=O)c1cc(-n2cc(C#N)cn2)cnc1-c1nc2cc(C(F)(F)F)ncc2n1C [Compound P94]
≥ 80%: mortality at 200 ppm [1] | mortality at 200 ppm [2] | pest or weed control at 200 ppm [9] | mortality at 200 ppm [3] | percent effect (mortality or growth inhibition) at 200 ppm [4] | percent control (mortality, anti-feedant effect or growth inhibition) at 200 ppm [5] | mortality at 200 ppm [6] | mortality at 200 ppm [10] | mortality at 24 ppm [7] | mortality at 200 ppm [8]

CCS(=O)(=O)c1cc(-c2nccc(C(F)(F)F)n2)cnc1-c1nc2cc(C(F)(F)F)ncc2n1C [Compound P100]
≥ 80%: mortality at 200 ppm [1] | mortality at 200 ppm [2] | pest or weed control at 200 ppm [9] | mortality at 200 ppm [3] | percent effect (mortality or growth inhibition) at 200 ppm [4] | percent control (mortality, anti-feedant effect or growth inhibition) at 200 ppm [5] | mortality at 200 ppm [6] | mortality at 200 ppm [10] | percent control (mortality, anti-feedancy or growth inhibition) at 12.5 ppm [11] | mortality at 200 ppm [8]

CCS(=O)(=O)c1cc(-n2cnc(Cl)n2)cnc1-c1nc2cc(C(F)(F)F)ncc2n1C [Compound P106]
≥ 80%: mortality at 200 ppm [1] | mortality at 200 ppm [2] | mortality at 200 ppm [3] | percent effect (mortality or growth inhibition) at 200 ppm [4] | percent control (mortality, anti-feedant effect or growth inhibition) at 200 ppm [5] | mortality at 200 ppm [6] | mortality at 200 ppm [10] | mortality at 24 ppm [7] | mortality at 200 ppm [8]

CCS(=O)(=O)c1cc(-c2ncc(C#N)cn2)cnc1-c1nc2cc(C(F)(F)F)ncc2n1C [Compound P111]
≥ 80%: mortality at 200 ppm [1] | mortality at 200 ppm [2] | pest or weed control at 200 ppm [9] | mortality at 200 ppm [3] | percent effect (mortality or growth inhibition) at 200 ppm [4] | percent control (mortality, anti-feedant effect or growth inhibition) at 200 ppm [5] | mortality at 200 ppm [6] | mortality at 200 ppm [10] | mortality at 24 ppm [7] | mortality at 200 ppm [8]
